According to article PMC9036627, “Global update on the susceptibility of human influenza viruses to neuraminidase inhibitors, 2013–2014” (Antiviral research, 2015):

Key:
[1] = tested on: neuraminidase (NA) of B/Yamagata-lineage viruses; format: biochemical, influenza B/Yamagata-lineage virus
[2] = tested on: neuraminidase (NA) of B/Victoria-lineage viruses; format: biochemical, influenza B/Victoria-lineage virus
[3] = tested on: neuraminidase (NA) of A(H1N1)pdm09 viruses; format: biochemical, influenza A(H1N1)pdm09 virus
[4] = tested on: former seasonal A(H1N1) H275Y virus; conditions: ref Kawai et al., 2009, Dharan et al., 2010, Matsuzaki et al., Saito et al.; cited from earlier work
[5] = tested on: former seasonal A(H1N1) H275Y virus; conditions: ref Kawai et al., 2009, Dharan et al., 2010, Matsuzaki et al., Saito et al.; cited from earlier work; remark: listed apart in the source

Structure (SMILES)	effect of NA substitution on susceptibility [1]	inhibition category (HRI/RI/NI) [2]	Included in phenotypic analysis: inhibition category (HRI/RI/NI) [3]	effect of NA substitution on susceptibility [3]	clinical resistance [4]	inhibition category in vitro [5]	inhibition category (HRI/RI/NI) [1]
[H]/N=C(\N)N[C@H]1C=C(C(=O)O)O[C@@H]([C@H](OC)[C@H](O)CO)[C@@H]1NC(C)=O [Laninamivir, laninamivir]	no effect	HRI (key: NI < 5-fold; RI 5 to 50-fold; HRI > 50-fold)	RI (key: NI < 10-fold; RI 10 to 100-fold; HRI > 100-fold)	little or no effect			
CCOC(=O)C1=C[C@@H](OC(CC)CC)[C@H](NC(C)=O)[C@@H](N)C1 [Oseltamivir, oseltamivir]		RI (key: NI < 5-fold; RI 5 to 50-fold; HRI > 50-fold)			clinically resistant	HRI (HRI > 100-fold)	RI (key: NI < 5-fold; RI 5 to 50-fold; HRI > 50-fold)
CCC(CC)[C@H](NC(C)=O)[C@@H]1[C@H](O)[C@@H](C(=O)O)C[C@H]1N=C(N)N [Peramivir, peramivir]		HRI (key: NI < 5-fold; RI 5 to 50-fold; HRI > 50-fold)				HRI (HRI > 100-fold)	
CC(=O)N[C@H]1[C@H]([C@H](O)[C@H](O)CO)OC(C(=O)O)=C[C@@H]1N=C(N)N [Zanamivir, zanamivir]	no effect	HRI (key: NI < 5-fold; RI 5 to 50-fold; HRI > 50-fold)		little or no effect			
